From PubChem BioAssay AID248 (DTP/NCI, 2004)
Several values for one entry are separate records, joined by “and”; a condition that tells them apart may be missing. Equal values may be shown once. Toxic doses and inconclusive results are not listed. Cut-off read from the data, not from the text of the source: active = T/C of 150% or more; inactive = T/C below 125%.

System: L1210 leukemia ip in BDF1 mice, survival T/C
Experiment: NCI In Vivo Anticancer Drug Screen. Data for tumor model L1210 Leukemia (intraperitoneal) in B6D2F1 (BDF1) mice
Conditions: endpoint: mean survival time, higher = longer survival
Method in brief: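 Tumor was transplanted into mice, which were then dosed with test compound or vehicle alone. Survival was recorded for each group, and the treated figure was expressed relative to the control figure.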

[1] = dose: 50.0 mg/kg/injection, schedule: Q01DX001 (ip), vehicle: carboxymethylcellulose (CMC)
[2] = dose: 100.0 mg/kg/injection, schedule: Q01DX001 (ip), vehicle: carboxymethylcellulose (CMC)
[3] = dose: 200.0 mg/kg/injection, schedule: Q01DX001 (ip), vehicle: carboxymethylcellulose (CMC)
[4] = dose: 400.0 mg/kg/injection, schedule: Q01DX001 (ip), vehicle: carboxymethylcellulose (CMC)
[5] = dose: 100.0 mg/kg/injection, schedule: Q01DX001 (ip), vehicle: saline
[6] = dose: 100.0 mg/kg/injection, schedule: Q01DX009 (ip), vehicle: Klucel (hydroxypropylcellulose) (HPC)
[7] = dose: 200.0 mg/kg/injection, schedule: Q01DX001 (ip), vehicle: saline
[8] = dose: 200.0 mg/kg/injection, schedule: Q01DX009 (ip), vehicle: Klucel (hydroxypropylcellulose) (HPC)
[9] = dose: 400.0 mg/kg/injection, schedule: Q01DX001 (ip), vehicle: saline
[10] = dose: 400.0 mg/kg/injection, schedule: Q01DX009 (ip), vehicle: Klucel (hydroxypropylcellulose) (HPC)
[11] = dose: 100.0 mg/kg/injection, schedule: Q04DX003 (ip), vehicle: Klucel (hydroxypropylcellulose) (HPC)
[12] = dose: 200.0 mg/kg/injection, schedule: Q04DX003 (ip), vehicle: Klucel (hydroxypropylcellulose) (HPC)
[13] = dose: 400.0 mg/kg/injection, schedule: Q04DX003 (ip), vehicle: Klucel (hydroxypropylcellulose) (HPC)
[14] = dose: 100.0 mg/kg/injection, schedule: Q01DX009 (ip), vehicle: saline
[15] = dose: 100.0 mg/kg/injection, schedule: Q04DX003 (ip), vehicle: saline
[16] = dose: 200.0 mg/kg/injection, schedule: Q01DX009 (ip), vehicle: saline
[17] = dose: 200.0 mg/kg/injection, schedule: Q04DX003 (ip), vehicle: saline
[18] = dose: 400.0 mg/kg/injection, schedule: Q01DX009 (ip), vehicle: saline
[19] = dose: 400.0 mg/kg/injection, schedule: Q04DX003 (ip), vehicle: saline

Measured: T/C

CCOP(=O)(OCC)O/N=C(/SC)C(C)C
inactive: dose: 5.0 mg/kg/injection, schedule: Q01DX001 (ip), vehicle: saline 100 % of control | dose: 10.0 mg/kg/injection, schedule: Q01DX001 (ip), vehicle: saline 111 % of control | dose: 20.0 mg/kg/injection, schedule: Q01DX001 (ip), vehicle: saline 103 % of control | dose: 40.0 mg/kg/injection, schedule: Q01DX001 (ip), vehicle: saline 100 % of control | dose: 80.0 mg/kg/injection, schedule: Q01DX001 (ip), vehicle: saline 116 % of control

OC(OCC(COC(O)C(Br)Br)(COC(O)C(Br)Br)COC(O)C(Br)Br)C(Br)Br (configuration not stated)
inactive: [1] 101 % of control | [2] 95 % of control | [3] 92 % of control | [4] 95 % of control

COC(=O)C1=C(C(=O)OC)C2C=CC1C2
inactive: [5] 102 % of control | [6] 111 % of control | [7] 94 % of control | [8] 91 % of control | [9] 91 % of control | [10] 97 % of control

CCCCCCCCCCCCCCCCC1(CC)NC(=O)NC1=O (configuration not stated)
inactive: [11] 95 % of control | [12] 93 % of control | [13] 96 % of control

Cn1c2ccccc2c(=O)c2c(O)cc3c(c21)C=C(Br)C(C)(C)O3
inactive: [1] 88 % of control | [2] 93 % of control | [3] 98 % of control | [4] 90 % of control

O=C1c2c(c(-c3ccccc3)c3ccccc3c2-c2ccccc2)C(c2ccccc2)c2c1c(-c1ccccc1)c1ccccc1c2-c1ccccc1
inactive: dose: 100.0 mg/kg/injection, schedule: Q01DX001 (ip), vehicle: saline with Tween-80 111 % of control | dose: 200.0 mg/kg/injection, schedule: Q01DX001 (ip), vehicle: saline with Tween-80 97 % of control | dose: 400.0 mg/kg/injection, schedule: Q01DX001 (ip), vehicle: saline with Tween-80 90 % of control

CC1(c2ccc(Cl)s2)C(=O)N(Cl)C(=O)N1Cl (configuration not stated)
inactive: dose: 12.5 mg/kg/injection, schedule: Q01DX009 (ip), vehicle: saline with Tween-80 95 % of control | dose: 25.0 mg/kg/injection, schedule: Q01DX009 (ip), vehicle: saline with Tween-80 100 % of control | dose: 50.0 mg/kg/injection, schedule: Q01DX009 (ip), vehicle: saline with Tween-80 94 % of control and 89 % of control | dose: 100.0 mg/kg/injection, schedule: Q01DX009 (ip), vehicle: saline with Tween-80 93 % of control | dose: 100.0 mg/kg/injection, schedule: Q04DX003 (ip), vehicle: saline with Tween-80 96 % of control | dose: 200.0 mg/kg/injection, schedule: Q04DX003 (ip), vehicle: saline with Tween-80 98 % of control

Cc1cc(Sc2ccccc2)c2c(C)ccc(C(C)C)cc1-2
inactive: [2] 95 % of control | [3] 97 % of control | [4] 95 % of control

S=P(NCCSCc1ccccc1)(N1CC1)N1CC1
inactive: dose: 6.5 mg/kg/injection, schedule: Q01DX011 (ip), vehicle: carboxymethylcellulose (CMC) 98 % of control | dose: 13.0 mg/kg/injection, schedule: Q01DX011 (ip), vehicle: carboxymethylcellulose (CMC) 102 % of control | dose: 26.0 mg/kg/injection, schedule: Q01DX011 (ip), vehicle: carboxymethylcellulose (CMC) 110 % of control | dose: 200.0 mg/kg/injection, schedule: Q01DX015 (ip), vehicle: carboxymethylcellulose (CMC) 106 % of control

CCC(=O)Nc1ccccc1OC
inactive: [11] 100 % of control | [12] 115 % of control | [13] 102 % of control

CCCCCCC[CH2][Sn]([CH2]CCCCCCC)([NH]S(=O)(=O)c1ccc(C)cc1)[NH]S(=O)(=O)c1ccc(C)cc1
inactive: dose: 18.75 mg/kg/injection, schedule: Q01DX009 (ip), vehicle: saline sonified 102 % of control | dose: 37.5 mg/kg/injection, schedule: Q01DX009 (ip), vehicle: saline sonified 86 % of control | dose: 75.0 mg/kg/injection, schedule: Q04DX003 (ip), vehicle: Klucel (hydroxypropylcellulose) (HPC) 107 % of control

[Mg+2]
inactive: [5] 96 % of control | [14] 95 % of control | [15] 93 % of control | [7] 91 % of control | [16] 95 % of control | [17] 89 % of control | [9] 96 % of control | [18] 97 % of control | [19] 88 % of control

CCNC(=O)Nc1ncn[nH]1
inactive: dose: 75.0 mg/kg/injection, schedule: Q01DX001 (ip), vehicle: carboxymethylcellulose (CMC) 102 % of control | dose: 150.0 mg/kg/injection, schedule: Q01DX001 (ip), vehicle: carboxymethylcellulose (CMC) 98 % of control

CC[N+](C)(CC)CCNC(=O)Nc1ccc(C)c(NC(=O)NCC[N+](C)(CC)CC)c1
inactive: dose: 1.56 mg/kg/injection, schedule: Q01DX009 (ip), vehicle: saline 97 % of control | dose: 3.12 mg/kg/injection, schedule: Q01DX009 (ip), vehicle: saline 95 % of control | dose: 3.12 mg/kg/injection, schedule: Q04DX002 (ip), vehicle: saline 90 % of control

O=C(c1ccc([N+](=O)[O-])cc1)C(Br)C(Br)c1ccncc1 (configuration not stated)
inactive: [6] 89 % of control | [8] 89 % of control | [10] 93 % of control

CCCCn1c(C)nc2c(NN=C(N)N)c3ccccc3c(N=NC(=N)N)c21
inactive: dose: 7.5 mg/kg/injection, schedule: Q01DX Z (oral), vehicle: carboxymethylcellulose (CMC) 102 % of control | dose: 15.0 mg/kg/injection, schedule: Q01DX Z (ip), vehicle: carboxymethylcellulose (CMC) 95 % of control | dose: 15.0 mg/kg/injection, schedule: Q01DX Z (oral), vehicle: carboxymethylcellulose (CMC) 104 % of control | dose: 30.0 mg/kg/injection, schedule: Q01DX Z (oral), vehicle: carboxymethylcellulose (CMC) 98 % of control | dose: 60.0 mg/kg/injection, schedule: Q01DX Z (oral), vehicle: carboxymethylcellulose (CMC) 98 % of control

O=C1CCc2cccc(O)c2N1
inactive: [5] 103 % of control | [7] 103 % of control

CSCc1ccc(N)cc1
inactive: [6] 105 % of control | [11] 103 % of control | [8] 112 % of control | [12] 92 % of control | [10] 101 % of control | [13] 98 % of control

c1c[nH]cn1
inactive: dose: 50.0 mg/kg/injection, schedule: Q01DX009 (ip), vehicle: saline 93 % of control | [14] 101 % of control and 90 % of control | [15] 97 % of control | [16] 96 % of control and 90 % of control | [17] 97 % of control | [18] 103 % of control | [19] 94 % of control

COc1ccc(NC(=O)Nc2cc(C)ccc2C)cc1
inactive: [6] 89 % of control | [11] 93 % of control | [8] 86 % of control | [12] 93 % of control | [10] 92 % of control | [13] 87 % of control
